Reference: publication PMC3702509, “Label Free Fragment Screening Using Surface Plasmon Resonance as a Tool for Fragment Finding – Analyzing Parkin, a Difficult CNS Target” (PLoS ONE, 2013)

Columns and labels:
[1] = target: T1, FL-FLAG-Parkin 56°C (thermal treated) (Homo sapiens, UniProt O60260); assay: SPR kinetics/affinity on thermal treated FL-FLAG Parkin captured by anti-FLAG antibody; type: binding
T1 construct: the entire coding region (residues 1–465) from NM_004562.1 was cloned into pFastBac; made in house; host or cells: Sf9 or Sf21 insect cells (baculovirus)
T1 sequence (O60260 1-465): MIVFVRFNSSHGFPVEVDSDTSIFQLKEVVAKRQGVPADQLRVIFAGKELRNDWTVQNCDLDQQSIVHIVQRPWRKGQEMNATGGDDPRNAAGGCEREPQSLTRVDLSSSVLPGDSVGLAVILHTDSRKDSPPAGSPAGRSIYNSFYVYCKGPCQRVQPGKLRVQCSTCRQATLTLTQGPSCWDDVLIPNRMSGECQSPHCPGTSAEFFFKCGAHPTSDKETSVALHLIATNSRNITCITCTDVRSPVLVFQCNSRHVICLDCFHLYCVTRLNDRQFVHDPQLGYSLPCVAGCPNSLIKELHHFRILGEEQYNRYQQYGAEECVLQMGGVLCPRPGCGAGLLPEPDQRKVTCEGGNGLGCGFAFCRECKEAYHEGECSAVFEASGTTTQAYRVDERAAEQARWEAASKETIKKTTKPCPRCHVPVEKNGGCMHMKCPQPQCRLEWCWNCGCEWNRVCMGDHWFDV
Method: Kinetics and Affinity measurements were performed on a GE Healthcare Biacore T100 or T200 instrument. Anti-FLAG antibody M2 was immobilized on a CM5 sensor chip using standard amine coupling procedure at a concentration of 100 μg/ml to a level of 10000 response units (RU). […] The running buffer for both methods was 10 mM HEPES pH 7.4, 150 mM NaCl, 0.005% Tween-20, 4 mM reducing agent. […] Flow cell 2 contained antibody only to control for non-specific binding of fragments to the antibody, and flow cells 3 and 4 contained antibody and captured Parkin. Untagged Parkin domain R0RBR was immobilized by amine coupling at a concentration of 100 μg/ml in 10 mM acetic acid pH 5.0 using the same running buffer as for anti-FLAG antibody immobilization. The surface was then washed with 10 mM HEPES pH 7.4, 150 mM NaCl, 0.005% Tween-20, 4 mM reducing agent for at least one hour.
(§1) The flow rate was 30μl/min. The time-dependent binding curves were monitored simultaneously. The surfaces were then regenerated after each binding experiment by washing the surfaces with an injection of running buffer. Kinetics and affinity experiments were repeated at least twice at two different test occasions.
Kinetic and affinity data were solvent corrected (fragments only), reference subtracted and blank subtracted using the Biacore T200 evaluation software V.1. Kinetic constants were determined by curve fitting using a 1∶1 binding model. Association and dissociation curves were fitted globally or locally. The rate of complex formation (1∶1 interaction) during fragment injection was calculated according to the equation (2): [drawing 2] […] The dissociation phase kd was measured using the rate of decline in RU after the injection stop, when free running buffer is flowing over the surface. Data were simultaneously fitted by the software and the dissociation constant KD calculated using equation (3). […] (3) Ligand efficiency (LE, Δg) was calculated as the binding energy of ligand per atom (equation 4) [drawing 4] […]
The dissociation half-life (t1/2) was calculated by equation (5). […]

FL-FLAG Parkin [2] = target: T2, FL-FLAG Parkin (Homo sapiens, UniProt O60260); assay: S5a ubiquitination HTRF (TR-FRET) assay; type: biochemical; details: Parkin heated at 56°C in presence of reducing agent; DTT at optimal 5–10 mM
T2 construct: the entire coding region (residues 1–465) from NM_004562.1 was cloned into pFastBac; made in house; host or cells: Sf9 or Sf21 insect cells (baculovirus)
T2 sequence (O60260 1-465): T1 sequence (O60260 1-465)
Method: FL FLAG-Parkin (35 μM stock) was thermally treated by incubating at 56°C for 30 min. The thermally treated FL FLAG-Parkin stock was stored at −80 C. 5 μl of thermally treated or non-treated FLAG-Parkin diluted in assay buffer was added to wells of a 384-well non-binding plate. […] The reaction was allowed to proceed for 120 min at 30°C. 10 μl of stop-detection mix was added to a final concentration of 75 nM streptavidin XL665 conjugate, 12 mM EDTA in buffer containing 100 mM Na2HPO4 pH 7.0, 300 mM KF, and 0.1% BSA. The 20 μl reaction mixture was incubated for 60 min at room temperature. HTRF read using a LJL Analyst plate reader (Molecular Devices) at excitation 320 nm and emission 665 nm & 615 nm.

[3] = target: T3, FL-FLAG-Parkin RT (non-thermal treated) (Homo sapiens, UniProt O60260); assay: SPR kinetics/affinity on non-thermal treated FL-FLAG Parkin captured by anti-FLAG antibody; type: binding; details: for direct binding of reducing agent by SPR: non-thermal treated Parkin
T3 construct: the entire coding region (residues 1–465) from NM_004562.1 was cloned into pFastBac; made in house; host or cells: Sf9 or Sf21 insect cells (baculovirus)
T3 sequence (O60260 1-465): T1 sequence (O60260 1-465)
Method: Kinetics and Affinity measurements were performed on a GE Healthcare Biacore T100 or T200 instrument. Anti-FLAG antibody M2 was immobilized on a CM5 sensor chip using standard amine coupling procedure at a concentration of 100 μg/ml to a level of 10000 response units (RU). […] Flow cell 2 contained antibody only to control for non-specific binding of fragments to the antibody, and flow cells 3 and 4 contained antibody and captured Parkin. Untagged Parkin domain R0RBR was immobilized by amine coupling at a concentration of 100 μg/ml in 10 mM acetic acid pH 5.0 using the same running buffer as for anti-FLAG antibody immobilization. […]
as §1
Kinetic and affinity data were solvent corrected (fragments only), reference subtracted and blank subtracted using the Biacore T200 evaluation software V.1. Kinetic constants were determined by curve fitting using a 1∶1 binding model. Association and dissociation curves were fitted globally or locally. The rate of complex formation (1∶1 interaction) during fragment injection was calculated according to the equation (2): [drawing 2] (2) where R is the SPR signal in response units (RU), C is the concentration of analyte, Rmax is the maximum analyte binding capacity in RU, dR/dt is the rate of SPR signal change. To determine the association constant ka between fragment and protein, the early binding phase was used. The dissociation phase kd was measured using the rate of decline in RU after the injection stop, when free running buffer is flowing over the surface. Data were simultaneously fitted by the software and the dissociation constant KD calculated using equation (3). [drawing 3] (3) Ligand efficiency (LE, Δg) was calculated as the binding energy of ligand per atom (equation 4) [drawing 4] (4) where Nh is the number of heavy (i.e., non-hydrogen) atoms in the ligand.
The dissociation half-life (t1/2) was calculated by equation (5). [drawing 5] (5)

R0RBR Domain RT = target: T4, R0RBR Domain RT (Homo sapiens, UniProt O60260); assay: SPR kinetics/affinity on amine-coupled Parkin R0RBR domain; type: binding; details: read-out: Affinities KD of protein ligands
T4 construct: DNA encoding residues 141–465 of Parkin (NM_004562.1) were cloned into the Champion pET SUMO vector; SUMO (His-SUMO of the Champion pET SUMO vector) (N, cleaved yes); made in house; host or cells: E. coli BL21 DE3
T4 sequence (O60260 141-465): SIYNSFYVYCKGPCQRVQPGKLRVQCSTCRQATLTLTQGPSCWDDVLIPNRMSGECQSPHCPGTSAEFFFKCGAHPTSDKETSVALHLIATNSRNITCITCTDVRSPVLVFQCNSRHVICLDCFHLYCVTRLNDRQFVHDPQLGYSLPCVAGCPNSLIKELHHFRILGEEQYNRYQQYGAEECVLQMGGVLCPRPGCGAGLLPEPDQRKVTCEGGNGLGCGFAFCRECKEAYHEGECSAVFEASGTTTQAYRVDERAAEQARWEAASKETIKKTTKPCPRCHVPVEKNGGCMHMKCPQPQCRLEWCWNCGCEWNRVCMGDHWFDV
Method: Kinetics and Affinity measurements were performed on a GE Healthcare Biacore T100 or T200 instrument. Anti-FLAG antibody M2 was immobilized on a CM5 sensor chip using standard amine coupling procedure at a concentration of 100 μg/ml to a level of 10000 response units (RU). Monomeric non-thermal treated FL-Parkin or thermal treated FL-Parkin was captured in 10 mM acetic acid pH 4.5 to levels of up to 16000 RU. The running buffer for both methods was 10 mM HEPES pH 7.4, 150 mM NaCl, 0.005% Tween-20, 4 mM reducing agent. Typically, the 4 flow cells of the sensor chips were used as follows: flow cell 1 served as a reference and was activated and deactivated. […]
To test binding of reducing agents in the absence of small molecules, the reducing agents were diluted and injected in buffer without reducing agents for 180 sec and a dissociation phase of 600 sec. […] The time-dependent binding curves were monitored simultaneously. […]
Kinetic and affinity data were solvent corrected (fragments only), reference subtracted and blank subtracted using the Biacore T200 evaluation software V.1. Kinetic constants were determined by curve fitting using a 1∶1 binding model. […] The rate of complex formation (1∶1 interaction) during fragment injection was calculated according to the equation (2): [drawing 2] […] Data were simultaneously fitted by the software and the dissociation constant KD calculated using equation (3). […]

FL-FLAG Parkin [4] = target: T2, FL-FLAG Parkin; assay: STD NMR binding to FL-FLAG-Parkin; details: 4 µM FL Parkin, 0.5 mM DTT, 0.25 mM compound Z, signal at 2.6 ppm
Method: All NMR experiments were conducted at 15°C on a Bruker Avance 700 MHz spectrometer equipped with a 5 mm TCI cryo-probe. 3 mm NMR tubes were used for reducing the protein consumption. […] The compound concentration was 0.25 mM. […] The Mnova 7.0 (Mestrelab Research) was used in data analysis.

[5] = SPR, 50 mM HEPES pH 8.8, 0.005% Tween-20, 0.01% PF-127, no other reducing agent

Row | direct binding of reducing agent by SPR [1] | direct binding of reducing agent by SPR [3] | dissociation at a fast rate (kd), time ([3]; SPR, protein ligand) | Kd (R0RBR Domain RT) | DTT binding in STD spectrum (FL-FLAG Parkin [4]) | Kd [3, 5] | affinity (KD) of reducing agent [3, 5] | Rmax ([3]; SPR, same run as the KD of DTT) | binding activity % Rmax ([3]; SPR, same run as the KD of DTT) | dissociation half-life ([3]; calculated from the dissociation rate kd) | Compound | improvement of Parkin S5a ubiquitination activity (FL-FLAG Parkin [2])
1 | – | – | 30 s | 7.1 µM | – | – | – | – | – | – | UbcH7: Ubiquitin conjugating enzyme E2, non-tagged, purified in house | –
2 | did not exhibit any binding | did not exhibit any binding | – | – | – | – | – | – | – | – | OCCS [BME, β-mercaptoethanol] | up to 2.5 fold
3 | showed binding | showed binding | – | – | binding was evident | 1.4 µM | low micro-molar affinity | 34 RU | 47 % Rmax | 28.95 min | O[C@@H](CS)[C@@H](O)CS (racemic) [DTT, Dithiothreitol] | –

Row | Compound | direct binding of reducing agent by SPR [1] | direct binding of reducing agent by SPR [3] | dissociation at a fast rate (kd), time ([3]; SPR, protein ligand) | Kd (R0RBR Domain RT) | DTT binding in STD spectrum (FL-FLAG Parkin [4]) | Kd [3, 5] | affinity (KD) of reducing agent [3, 5] | Rmax ([3]; SPR, same run as the KD of DTT) | binding activity % Rmax ([3]; SPR, same run as the KD of DTT) | dissociation half-life ([3]; calculated from the dissociation rate kd) | improvement of Parkin S5a ubiquitination activity (FL-FLAG Parkin [2])
4 | O=C(O)CCP(CCC(=O)O)CCC(=O)O [TCEP] | did not exhibit any binding | did not exhibit any binding | – | – | – | – | – | – | – | – | up to 2.5 fold
